Where two headings read alike, the source gives them in different places.
How the values were obtained:
DOR = experiment: cAMP assay (adenylyl cyclase inhibition) in HEK-DOR cells; assay type: cell-based
Procedure: Human embryonic kidney 293 (HEK-293) cells constitutively expressing MOR (HEK-MOR) and DOR (HEK-DOR) (kindly provided by Dr. Ping-Yee Law, University of Minnesota, USA) were cultured in high-glucose Dulbecco's modified Eagle's medium (DMEM, GIBCO) supplemented with 400 μg/mL G418 (Sigma), 2 mM L-glutamine and P/S/F (100 units/mL penicillin, 100 μg/mL streptomycin, 10% fetal bovine serum). Chinese hamster ovary (CHO)-K1 cells, stably expressing hMOR and Gα15 (CHO-K1/MOR/Gα15), were cultured in F12 medium (GIBCO) supplemented with 10 μg/mL Hygromycin B (Invivogen), 20 μg/mL Zeocin (Invivogen) P/S/F (100 units/mL penicillin, 100 μg/mL streptomycin, 10% fetal bovine serum). The cultures were incubated at 37° C. in a humidified 5% CO2 incubator.
Briefly, 2000 HEK-MOR cells or HEK-DOR cells were plated in 10 μL/well of DMEM in 96-well solid bottom white plates and 10 μL/well compound in HBSS in the presence with 1 μM forskolin and 100 μM 3-isobutyl-1-methylxanthine (IBMX). After 30 minutes of incubation at room temperature, 10 μL/well of labeled d2-cAMP and 10 μL/well of anti-cAMP antibody (both diluted in lysis buffer) were added to each well. Two hours later, plates were measured using the FlexStationIII (Molecular Devices Corp.) with excitation at 330 nm and emissions of 620 nm and 665 nm.
To characterize of novel opioid receptor AAMs, the activity and selectivity of compound 58 were tested by inhibiting adenylyl cyclase activity (i.e., cAMP assay).
Opoid receptors inhibit adenylyl cyclase activity through Gi/o family of heterotrimeric G proteins. A cAMP-accumulation assay was performed to determine whether opioid receptor AAMs affect a G protein-dependent signaling pathway.

B6 mice = experiment: Tail-flick test; assay type: in vivo, mouse; parameters: key to Activity of tail-flick test: ++: 25 mg/kg (intravenous) or 50 nmol (intrathecal) active; +: 100 mg/kg (intravenous) active; conditions: mice; compound given intravenous or intrathecal
Procedure: In an exemplary in vivo method, a test compound and a MOR antagonist are injected into a mouse pain model (for example, intravenous but not limited), basal latencies are recorded before the treatment and test latencies are recorded at various specified times after the injection, and a time-response curve is recorded and AUC values are calculated to determine whether an analgesic effect is exerted on the mouse. The test compound is confirmed to be an antagonist-to-agonist allosteric modifier of the MOR upon observation of an analgesic effect.
Male wild-type (WT) B6 mice (25-30 g) were kept in a temperature-controlled animal room with a 12-h light/dark cycle. The protocol has been approved by the Institutional Animal Care and Use Committee of the National Health Research Institutes, Taiwan. Animal experiments were carried out in accordance with the Policies on the Use of Animals in Neuroscience Research and the ethical guidelines for investigations of experimental pain in conscious animals, International Association for the Study of Pain. Tail-Flick Analgesia Meter (Columbia Instruments) was used to measure the tail-flick latencies of mice. The cut-off time for each measurement was 10 s to avoid tissue damage. Basal latencies were recorded before treatment and test latencies were recorded 30, 60, 90, 120 and 180 min after an intravenous injection of drugs. […] ED50 values were determined by the up-and-down method reported in Crocker et al., Pharmacol Biochem Behav, 1984, 21, 133-136.
An in vivo study, i.e., tail-flick test, was performed to investigate whether AAMs could change innate character of μ-opioid receptor in the presence of naloxone. […] In mice injected with naloxone (10 mg/kg; s.c.), the ED50 value of compound 58 in inhibition of the tail-flick response was determined to be 23.1±7.1 nmole.

mu-opioid receptor (MOR) = mu-opioid receptor (MOR) (Homo sapiens (Human), UniProt P35372); experiment: cell-based; conditions: combined with a MOR antagonist; for AUC: AUC of [Ca2+]i fluorescence
Chain of mu-opioid receptor (MOR) (P35372 whole entry): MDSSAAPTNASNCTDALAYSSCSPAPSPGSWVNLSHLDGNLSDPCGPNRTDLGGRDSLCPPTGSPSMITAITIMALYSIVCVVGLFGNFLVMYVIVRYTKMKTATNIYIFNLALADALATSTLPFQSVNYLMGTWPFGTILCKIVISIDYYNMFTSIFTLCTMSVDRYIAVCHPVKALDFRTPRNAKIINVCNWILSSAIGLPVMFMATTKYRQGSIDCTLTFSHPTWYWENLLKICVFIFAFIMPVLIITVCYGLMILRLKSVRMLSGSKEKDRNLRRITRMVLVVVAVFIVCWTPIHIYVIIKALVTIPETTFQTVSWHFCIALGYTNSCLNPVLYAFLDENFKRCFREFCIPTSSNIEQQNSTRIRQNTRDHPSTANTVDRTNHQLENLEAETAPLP

Row | Compound | FLIPR Ca^2+ AUC (mu-opioid receptor (MOR)) | EC50 (mu-opioid receptor (MOR); read-out: FLIPR Ca^2+ EC50) [µM] | AUC (mu-opioid receptor (MOR); CHO-K1/MOR/Gα15 cells) | EC50 (mu-opioid receptor (MOR); EC50, CHO-K1/MOR/Gα15 cells) [µM] | other results
1 | [D-Pen(2),D-Pen(5)]-enkephalin [DPDPE] |  |  |  |  | cAMP-inhibition response (DOR; % of forskolin-stimulated (1 μM) cAMP accumulation): 60%; EC50 (DOR; agonist alone): 0.0005 µM
2 | N-Cyclobutyl-4-[2-(4-fluorophenyl)-4-oxo-1, 3-thiazolidin-3-yl]-3-methylbenzamide [Example 255] |  |  |  |  | Activity of tail-flick test (B6 mice): +
3 | Cc1cc(C(=O)N2CCC(N)C2)ccc1N1C(=O)CSC1c1ccc(F)cc1 (stereo not drawn) [Example 351] | 11205 | 10 |  |  | 
4 | Cc1cc(C(=O)NCCc2cccc(F)c2)ccc1N1C(=O)CSC1c1ccc(F)cc1 (stereo not drawn) [Example 385] | 7501 | 3.9 |  |  | 
5 | Cc1cc(C(=O)NS(=O)(=O)c2c(C)noc2C)ccc1N1C(=O)CSC1c1ccc(F)cc1 (stereo not drawn) [Example 213] | 9005 | 0.9 | more than 5000 | < 10 | 
6 | Cc1cc(C(=O)NCCCn2ccnc2)ccc1N1C(=O)CSC1c1ccc(F)cc1 (stereo not drawn) [Example 348] | 13641 | 8.8 |  |  | 
7 | Cc1cc(C(=O)O)ccc1N1C(=O)CSC1c1ccc(Cl)cc1 (stereo not drawn) [Example 84] | 5509 | 7.2 | more than 5000 | < 10 | 
8 | Cc1cc(C(=O)NC2CC2)ccc1N1C(=O)CSC1c1ccc(F)cc1 (stereo not drawn) [Example 336] | 11347 | 11 |  |  | 
9 | Cc1cc(C(=O)NCCc2cccc(Cl)c2)ccc1N1C(=O)CSC1c1ccc(F)cc1 (stereo not drawn) [Example 386] | 5727 | 4.2 |  |  | 
10 | COC(=O)c1ccc(N2C(=O)CSC2c2ccc(F)cc2)c(C)c1 (stereo not drawn) [Example 59] | 11534 | 2.6 |  |  | 
11 | Cc1cccnc1N1C(=O)CSC1c1ccc(F)cc1 (stereo not drawn) [Example 629, 2-(4-Fluorophenyl)-3-(3-methylpyridin-2-yl)-1,3-thiazolidin-4-one] | 4804 | 10 |  |  | 
12 | Cc1cc(C(=O)NCCN(C)C)ccc1N1C(=O)CSC1c1ccc(F)cc1 (stereo not drawn) [Example 340] | 9445 | 10 |  |  | 
13 | CCNC(=O)c1ccc(N2C(=O)CSC2c2ccc(F)cc2)c(C)c1 (stereo not drawn) [Example 335] | 11180 | 4.2 |  | < 10 | 
14 | Cc1c(N2C(=O)CSC2c2ccccc2)c(=O)n(-c2ccccc2)n1C (stereo not drawn) [Example 408] | 9281 | 12.7 | more than 5000 |  | 
15 | Cc1cc(C(=O)N2CC(O)C2)ccc1N1C(=O)CSC1c1ccc(F)cc1 (stereo not drawn) [Example 354] | 14863 | 3.6 |  |  | 
16 | CCOc1ccc(N2C(=O)CSC2c2ccc(F)cc2)cc1Cl (stereo not drawn) [Example 20] |  |  |  | < 10 | 
17 | 4-[2-(4-Fluorophenyl)-4-oxo-1,3-thiazolidin-3-yl]-N-methoxy-3-methylbenzamide [Example 154] | 15447 | 3.7 | more than 5000 |  | EC50 (mu-opioid receptor (MOR); CHO-K1/MOR/Gα15 cells, read-out: EC50): < 10 µM
18 | CCOC(=O)c1ccc(S(=O)(=O)NC(=O)c2ccc(N3C(=O)CSC3c3ccc(F)cc3)c(C)c2)cc1 (stereo not drawn) [Example 190] | 16512 | 2.4 |  |  | 

Row | Compound | FLIPR Ca^2+ AUC (mu-opioid receptor (MOR)) | EC50 (mu-opioid receptor (MOR); read-out: FLIPR Ca^2+ EC50) [µM] | AUC (mu-opioid receptor (MOR); CHO-K1/MOR/Gα15 cells) | EC50 (mu-opioid receptor (MOR); EC50, CHO-K1/MOR/Gα15 cells) [µM] | other results
19 | COc1cc(C(=O)O)ccc1N1C(=O)CSC1c1ccc(F)cc1 (stereo not drawn) [Example 12, 4-[2-(4-Fluoro-phenyl)-4-oxo-thiazolidin-3-yl]-3-methoxy-benzoic acid] | 12252 | 10.6 |  |  | 
20 | CCCCS(=O)(=O)NC(=O)c1ccc(N2C(=O)CSC2c2ccc(F)cc2)c(C)c1 (stereo not drawn) [Example 163] | 11389 | 1.2 | more than 5000 | < 10 | 
21 | Cc1cc(C(=O)NS(=O)(=O)c2cccc(F)c2)ccc1N1C(=O)CSC1c1ccc(F)cc1 (stereo not drawn) [Example 194] | 19019 | 0.2 | more than 5000 | < 10 | 
22 | Cc1cc(CC(=O)O)ccc1N1C(=O)CSC1c1ccc(F)cc1 (stereo not drawn) [Example 101] |  |  |  | < 10 | 
23 | Cc1cc(C(=O)NC2CCCCC2)ccc1N1C(=O)CSC1c1ccc(F)cc1 (stereo not drawn) [Example 339] | 7164 | 10 |  |  | 
24 | COc1ccc(N2C(=O)CSC2c2ccc(F)cc2)c(C)c1 (stereo not drawn) [Example 47] |  |  |  | < 10 | 
25 | Cc1noc(N2C(=O)CSC2c2ccc(F)cc2)c1C (stereo not drawn) [Example 395] | 7107 | 12 | more than 5000 |  | 
26 | Cc1cc(C(=O)OCCC2CC2)ccc1N1C(=O)CSC1c1ccc(F)cc1 (stereo not drawn) [Example 238] | 15409 | 12.3 | more than 5000 |  | 
27 | COCC(C)OC(=O)c1ccc(N2C(=O)CSC2c2ccc(F)cc2)c(C)c1 (stereo not drawn) [Example 279] | 10883 | 4.1 |  |  | 
28 | Cc1cc(S(=O)(=O)NC(=O)c2ccc(N3C(=O)CSC3c3ccc(F)cc3)c(C)c2)c(C)cc1Cl (stereo not drawn) [Example 208] |  |  |  | < 10 | 
29 | Cc1cc(C(=O)NS(=O)(=O)c2ccc(OC(F)(F)F)cc2)ccc1N1C(=O)CSC1c1ccc(F)cc1 (stereo not drawn) [Example 189] | 9544 | 1.1 |  |  | 
30 | Cc1cc(C(=O)OCCN2CCOCC2)ccc1N1C(=O)CSC1c1ccc(F)cc1 (stereo not drawn) [Example 296] | 14052 | 2.3 |  |  | 
31 | CCOC(=O)c1ccc(N2C(=O)CSC2c2ccc(F)cc2)c(C)n1 (stereo not drawn) [Example 635, Ethyl 5-[2-(4-fluorophenyl)-4-oxo-1,3-thiazolidin-3-yl]-6-methylpyridine-2-carboxylate] | 9843 | 10.9 | more than 5000 |  | 
32 | CC(=O)OCCOC(=O)c1ccc(N2C(=O)CSC2c2ccc(F)cc2)c(C)c1 (stereo not drawn) [Example 272] |  |  |  | < 10 | 
33 | Cc1cc(C(=O)NS(=O)(=O)c2ccc(F)cc2)ccc1N1C(=O)CSC1c1ccc(F)cc1 (stereo not drawn) [Example 196] | 15620 | 1.1 | more than 5000 | < 10 | 
34 | Cc1nnc(-c2ccc(N3C(=O)CSC3c3ccc(F)cc3)c(C)c2)o1 (stereo not drawn) [Example 227] | 15410 | 5.5 |  |  | 
35 | Cc1ccc(N2C(=O)CSC2c2ccc(F)cc2)c(C)c1 (stereo not drawn) [Example 102] |  |  |  | < 10 | 
36 | CCOC(=O)c1ccc(N2C(=O)CSC2c2ccc(F)cc2)c(CC)c1 (stereo not drawn) [Example 156] | 11998 | 6.2 | more than 5000 | < 10 | 

Reference: patent US10544113B2 (priority 2016, dated 2020)
